{"source": "patent US10835542B2", "about": "“9-aminomethyl minocycline compounds and use thereof in treating community-acquired bacterial pneumonia (CABP)” (Paratek Pharmaceuticals, Inc., priority 2016, dated 2020)", "data": [{"smiles": "COc1c(N2C[C@@H]3CCCN[C@@H]3C2)c(F)cc2c(=O)c(C(=O)O)cn(C3CC3)c12", "note": "[Moxifloxacin, moxifloxacin, reference compound]", "values": [{"measurement": "Total number of deaths", "setting": "ITT population", "value": 4}, {"measurement": "Subjects who died", "setting": "Safety population", "value": "4 (1.0) n (%)"}, {"measurement": "Subjects with at least one Adverse Event (AE)", "setting": "Safety population", "value": "200 (51.5) n (%)"}, {"measurement": "Subjects with at least one Drug-Related Serious TEAE", "setting": "Safety population", "value": "2 (0.5) n (%)"}, {"measurement": "Subjects with at least one Drug-Related TEAE", "setting": "Safety population", "value": "69 (17.8) n (%)"}, {"measurement": "Subjects with at least one Serious TEAE", "setting": "Safety population", "value": "26 (6.7) n (%)"}, {"measurement": "Subjects with at least one Serious TEAE Leading to Death", "setting": "Safety population", "value": "4 (1.0) n (%)"}, {"measurement": "Subjects with at least one Serious TEAE Leading to Premature Discontinuation of Test Article", "setting": "Safety population", "value": "11 (2.8) n (%)"}, {"measurement": "Subjects with at least one Severe TEAE", "setting": "Safety population", "value": "26 (6.7) n (%)"}, {"measurement": "Subjects with at least one TEAE", "setting": "Safety population", "value": "188 (48.5) n (%)"}, {"measurement": "Subjects with at least one TEAE Leading to Dose Interruption", "setting": "Safety population", "value": "0 n (%)"}, {"measurement": "Subjects with at least one TEAE Leading to Premature Discontinuation of Study", "setting": "Safety population", "value": "9 (2.3) n (%)"}, {"measurement": "Subjects with at least one TEAE Leading to Premature Discontinuation of Test Article", "setting": "Safety population", "value": "27 (7.0) n (%)"}, {"measurement": "TEAE leading to study drug discontinuation: Diarrhoea", "setting": "Safety population", "value": "1 (0.3) n (%)"}, {"measurement": "TEAE leading to study drug discontinuation: Dyspepsia", "setting": "Safety population", "value": "1 (0.3) n (%)"}, {"measurement": "TEAE leading to study drug discontinuation: Gastrointestinal Disorders", "setting": "Safety population", "value": "2 (0.5) n (%)"}, {"measurement": "TEAE leading to study drug discontinuation: Nausea", "setting": "Safety population", "value": "0 n (%)"}, {"measurement": "TEAE leading to study drug discontinuation: Vomiting", "setting": "Safety population", "value": "0 n (%)"}, {"measurement": "TEAE: Alanine Aminotransferase Increased", "setting": "Safety population", "value": "18 (4.6) n (%)"}, {"measurement": "TEAE: Aspartate Aminotransferase Increased", "setting": "Safety population", "value": "14 (3.6) n (%)"}, {"measurement": "TEAE: Constipation", "setting": "Safety population", "value": "6 (1.5) n (%)"}, {"measurement": "TEAE: Diarrhoea", "setting": "Safety population", "value": "31 (8.0) n (%)"}, {"measurement": "TEAE: Dyspepsia", "setting": "Safety population", "value": "2 (0.5) n (%)"}, {"measurement": "TEAE: Gamma-Glutamyltransferase Increased", "setting": "Safety population", "value": "8 (2.1) n (%)"}, {"measurement": "TEAE: Headache", "setting": "Safety population", "value": "5 (1.3) n (%)"}, {"measurement": "TEAE: Hypertension", "setting": "Safety population", "value": "11 (2.8) n (%)"}, {"measurement": "TEAE: Insomnia", "setting": "Safety population", "value": "8 (2.1) n (%)"}, {"measurement": "TEAE: Nausea", "setting": "Safety population", "value": "21 (5.4) n (%)"}, {"measurement": "TEAE: Pseudomembranous Colitis", "setting": "Safety population", "value": "1 (0.3) n (%)"}, {"measurement": "TEAE: Vomiting", "setting": "Safety population", "value": "6 (1.5) n (%)"}, {"measurement": "Total Number of AEs", "setting": "Safety population", "value": 520}, {"measurement": "Total Number of TEAEs", "setting": "Safety population", "value": 461}]}]}
